Values of other authors, collected in patent US20050142123A1, “Water-dispersible coenzyme q10 dry powders” (priority 2002, published 2005).

Key:
[1] = administered orally

Question: For COC1=C(OC)C(=O)C(CC=C(C)CCC=C(C)CCC=C(C)CCC=C(C)CCC=C(C)CCC=C(C)CCC=C(C)CCC=C(C)CCC=C(C)CCC=C(C)C)=C(C)C1=O [Coenzyme Q-10, 6-Decaprenyl-2,3-dimethoxy-5-methyl-1,4-benzoquinone], which bioavailability [1] is on record?
Answer: Its bioavailability is “poor”.

Question: And the solubility in water?
Answer: Its solubility in water is “practically insoluble in water”.
